From US20240158392A1 (Janssen Biotech, Inc., priority 2021, published 2024)
pIC50: −log10 of the molar value.

The compounds below were run against SIK2 (Homo sapiens, UniProt Q9H0K1) (assay: SIK2 Enzymatic Assay High Version 2 (High ATP)). Conditions: not given.
Format: biochemical
In short: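 At room temperature, enzyme (6 nM, 2× final) was preincubated with compound for 30 min, then 6 mM ATP and 400 μM HDAC5tide (both 2× final) were added for 2 h. ADP formed was measured by ADP-Glo Max (2 h reagent, 1 h detection) using luminescence.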

SIK2, sequence (Q9H0K1 whole entry, species assumed): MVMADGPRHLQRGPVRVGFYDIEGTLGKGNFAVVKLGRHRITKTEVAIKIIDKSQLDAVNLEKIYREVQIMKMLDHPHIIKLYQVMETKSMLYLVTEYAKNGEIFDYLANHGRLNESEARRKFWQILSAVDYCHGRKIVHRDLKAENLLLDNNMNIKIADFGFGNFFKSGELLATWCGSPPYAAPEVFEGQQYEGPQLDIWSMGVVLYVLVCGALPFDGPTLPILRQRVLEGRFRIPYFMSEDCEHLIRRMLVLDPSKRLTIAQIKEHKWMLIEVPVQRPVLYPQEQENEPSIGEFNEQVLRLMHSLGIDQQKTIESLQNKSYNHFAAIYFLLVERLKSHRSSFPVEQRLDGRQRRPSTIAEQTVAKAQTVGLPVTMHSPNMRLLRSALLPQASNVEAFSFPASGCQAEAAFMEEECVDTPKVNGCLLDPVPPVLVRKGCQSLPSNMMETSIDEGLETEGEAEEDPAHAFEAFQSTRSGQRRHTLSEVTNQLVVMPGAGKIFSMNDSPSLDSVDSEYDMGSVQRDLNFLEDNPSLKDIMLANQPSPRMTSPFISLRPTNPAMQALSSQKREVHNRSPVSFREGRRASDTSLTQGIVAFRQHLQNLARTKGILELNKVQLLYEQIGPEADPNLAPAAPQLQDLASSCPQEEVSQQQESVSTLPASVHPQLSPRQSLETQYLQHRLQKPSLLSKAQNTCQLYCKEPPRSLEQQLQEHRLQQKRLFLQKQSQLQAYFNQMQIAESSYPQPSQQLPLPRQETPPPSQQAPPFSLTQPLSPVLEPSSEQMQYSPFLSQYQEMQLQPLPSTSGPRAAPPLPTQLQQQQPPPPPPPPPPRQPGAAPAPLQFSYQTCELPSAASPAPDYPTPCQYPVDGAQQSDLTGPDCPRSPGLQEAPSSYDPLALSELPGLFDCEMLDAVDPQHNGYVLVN

| SMILES | pIC50 |
| --- | --- |
| Cc1cc(-c2ccn3nc(Nc4nn(C)cc4F)cc3c2)c(O[C@H]2C[C@H]3COC[C@@H](C2)N3)cn1 [Example 399, N-(4-fluoro-1-methyl-pyrazol-3-yl)-5-[2-methyl-5-[[(1S,5R,7s)-3-oxa-9-azabicyclo[3.3.1]nonan-7-yl]oxy]-4-pyridyl]pyrazolo[1,5-a]pyridin-2-amine] | 7.35 |
| Cc1cc(-c2ccn3nc(Nc4cn(C)nn4)cc3c2)c(O[C@H]2C[C@H]3COC[C@@H](C2)N3)cn1 [Example 380, 5-[2-methyl-5-[[(1R,5S,7s)-3-oxa-9-azabicyclo[3.3.1]nonan-7-yl]oxy]-4-pyridyl]-N-(1-methyltriazol-4-yl)pyrazolo[1,5-a]pyridin-2-amine] | > 9.07 |
| CC#Cc1cc(-c2ccn3nc(NC(=O)C4CC4)cc3c2)c(O[C@H]2C[C@H]3COC[C@@H](C2)N3)cn1 [Example 436, N-[5-[5-[[(1S,5R)-3-oxa-9-azabicyclo[3.3.1]nonan-7-yl]oxy]-2-prop-1-ynyl-4-pyridyl]pyrazolo[1,5-a]pyridin-2-yl]cyclopropanecarboxamide] | > 9.07 |
| CCCNC(=O)c1ccc(Nc2cc3cc(-c4cc(C)ncc4O[C@H]4C[C@H]5COC[C@@H](C4)N5)ccn3n2)nc1 [Example 377, 6-[[5-[2-methyl-5-[[(1R,5S,7s)-3-oxa-9-azabicyclo[3.3.1]nonan-7-yl]oxy]-4-pyridyl]pyrazolo[1,5-a]pyridin-2-yl]amino]-N-propyl-pyridine-3-carboxamide] | > 9.07 |
| Cc1cc(-c2ccn3nc(N)cc3c2)c(O[C@H]2C[C@H]3COC[C@@H](C2)N3)cn1 [Example 405, 5-(5-(((1R,5S,7s)-3-oxa-9-azabicyclo[3.3.1]nonan-7-yl)oxy)-2-methylpyridin-4-yl)pyrazolo[1,5-a]pyridin-2-amine] | > 9.07 |
| Cc1cc(-c2ccn3nc(Nc4cccc(C(F)(F)F)n4)cc3c2)c(O[C@@H]2C[C@H]3COC[C@@H](C2)N3C)cn1 [Example 406, 5-[2-methyl-5-[[(1S,5R,7s)-9-methyl-3-oxa-9-azabicyclo[3.3.1]nonan-7-yl]oxy]-4-pyridyl]-N-[6-(trifluoromethyl)-2-pyridyl]pyrazolo[1,5-a]pyridin-2-amine] | 8.74 |
| Cc1cc(-c2ccn3nc(Nc4cc(C(F)(F)F)n(C)n4)cc3c2)c(O[C@H]2C[C@H]3COC[C@@H](C2)N3)cn1 [Example 379, 5-[2-methyl-5-[[(1S,5R,7s)-3-oxa-9-azabicyclo[3.3.1]nonan-7-yl]oxy]-4-pyridyl]-N-[1-methyl-5-(trifluoromethyl)pyrazol-3-yl]pyrazolo[1,5-a]pyridin-2-amine] | 8.90 |

Same assay, conditions: enzyme 6 nM, 6 mM ATP and 400 μM HDAC5tide (each 2× final concentration); 30 minutes pre-incubation, 2 hours; ADP-Glo Max luminescence; read-out: SIK2 high ATP IC50 (μM) (Test Example 2)

| SMILES | IC50 [µM] |
| --- | --- |
| Cc1cc(-c2ccn3nc(Nc4cccnn4)cc3c2)c(OC[C@H]2CNCC(C)(C)O2)cn1 (single isomer, unassigned) [Example 516, (*R)-5-[5-[(6,6-dimethylmorpholin-2-yl)methoxy]-2-methyl-4-pyridyl]-N-pyridazin-3-yl-pyrazolo[1,5-a]pyridin-2-amine] | 0.0528 |
| Cc1cc(-c2ccn3nc(NC(=O)C4CC4)cc3c2)c(OC[C@@H](O)C2CCCCC2)cn1 (single isomer, unassigned) [Example 197, (*S)—N-(5-(5-(2-cyclohexyl-2-hydroxyethoxy)-2-methylpyridin-4-yl)pyrazolo[1,5-a]pyridin-2-yl)cyclopropanecarboxamide] | 0.0195 |
| Cc1cc(-c2ccn3nc(NC(=O)C4CC4)cc3c2)c(OCC2(O)CCNC2)cn1 (single isomer, unassigned) [Example 222, (*S)—N-[5-[5-[(3-hydroxypyrrolidin-3-yl)methoxy]-2-methyl-4-pyridyl]pyrazolo[1,5-a]pyridin-2-yl]cyclopropanecarboxamide] | 0.0119 |
| N#CCN1CC[C@@H](COc2cnc(C#N)cc2-c2ccn3nc(NC(=O)C4CC4)cc3c2)C1 [Example 563, N-[5-[2-cyano-5-[[(3R)-1-(cyanomethyl)pyrrolidin-3-yl]methoxy]-4-pyridyl]pyrazolo[1,5-a]pyridin-2-yl]cyclopropanecarboxamide] | 0.038 |
| Cc1cc(-c2ccn3nc(NC(=O)C4CC4)cc3c2)c(O[C@H]2CC[C@@](O)(c3ccccc3)CC2)cn1 [Example 192, N-(5-(5-(((1r,1r)-4-hydroxy-4-phenylcyclohexyl)oxy)-2-methylpyridin-4-yl)pyrazolo[1,5-a]pyridin-2-yl)cyclopropanecarboxamide] | 0.0612 |
| Cc1cc(-c2ccn3nc(Nc4ccc5nccn5n4)cc3c2)c(OCC(C)(C)O)cn1 [Example 260, 1-[[4-[2-(imidazo[1,2-b]pyridazin-6-ylamino)pyrazolo[1,5-a]pyridin-5-yl]-6-methyl-3-pyridyl]oxy]-2-methyl-propan-2-ol] | 0.0183 |
| Cc1cc(-c2ccn3nc(Nc4cc(C)nc(C)n4)cc3c2)c(OCC2(C#N)COC2)cn1 [Example 275, 3-[[4-[2-[(2,6-dimethylpyrimidin-4-yl)amino]pyrazolo[1,5-a]pyridin-5-yl]-6-methyl-3-pyridyl]oxymethyl]oxetane-3-carbonitrile] | 0.0313 |
| Cc1cc(Nc2cc3cc(-c4cc(OCC(F)(F)F)ncc4OCC(C)(C)C#N)ccn3n2)nc(C)n1 [Example 659, 3-[[4-[2-[(2,6-dimethylpyrimidin-4-yl)amino]pyrazolo[1,5-a]pyridin-5-yl]-6-(2,2,2-trifluoroethoxy)-3-pyridyl]oxy]-2,2-dimethyl-propanenitrile] | 0.157 |
| Cc1cc(-c2ccn3nc(Nc4cc(C)nc(C)n4)cc3c2)c(O[C@H]2C[C@@H](N)C2)cn1 [Example 314, 5-[5-(3-aminocyclobutoxy)-2-methyl-4-pyridyl]-N-(2,6-dimethylpyrimidin-4-yl)pyrazolo[1,5-a]pyridin-2-amine] | 0.0129 |
| Cc1cc(-c2ccn3nc(Nc4ccc(C(=O)NC5CC5)cn4)cc3c2)c(OCC(C)(C)O)cn1 [Example 639, N-cyclopropyl-6-[[5-[5-(2-hydroxy-2-methyl-propoxy)-2-methyl-4-pyridyl]pyrazolo[1,5-a]pyridin-2-yl]amino]pyridine-3-carboxamide] | 0.0887 |

Next, values leading:

| IC50 [µM] | SMILES |
| --- | --- |
| 0.00639 | CC#Cc1cc(-c2ccn3nc(Nc4cnn(C)c4)cc3c2)c(OC[C@H]2OCC[C@@H]2O)cn1 [Example 300, (2R,3S)-2-[[4-[2-[(1-methylpyrazol-4-yl)amino]pyrazolo[1,5-a]pyridin-5-yl]-6-prop-1-ynyl-3-pyridyl]oxymethyl]tetrahydrofuran-3-ol] |
| 0.00403 | Cc1cc(-c2ccn3nc(Nc4cccc(C)n4)cc3c2)c(OC[C@@H]2CNCCO2)cn1 [Example 426, 5-[2-methyl-5-[[(2S)-morpholin-2-yl]methoxy]-4-pyridyl]-N-(6-methyl-2-pyridyl)pyrazolo[1,5-a]pyridin-2-amine] |
| 0.00675 | Cc1cc(-c2ccn3nc(Nc4nn(C)c5ccccc45)cc3c2)c(OC[C@H]2OCC[C@@H]2O)cn1 [Example 299, (2R,3S)-2-[[6-methyl-4-[2-[(1-methylindazol-3-yl)amino]pyrazolo[1,5-a]pyridin-5-yl]-3-pyridyl]oxymethyl]tetrahydrofuran-3-ol] |
| 0.00617 | Cn1ccc(Nc2cc3cc(-c4cc(OC(F)F)ncc4OCC(C)(C)C#N)ccn3n2)n1 [Example 714, 3-[[6-(difluoromethoxy)-4-[2-[(1-methylpyrazol-3-yl)amino]pyrazolo[1,5-a]pyridin-5-yl]-3-pyridyl]oxy]-2,2-dimethyl-propanenitrile] |
| 0.00117 | Cc1cc(-c2ccn3nc(Nc4cc(C)c(=O)n(C)n4)cc3c2)c(O[C@H]2CC[C@@H](S(C)(=O)=O)CC2)cn1 [Example 305, 2,4-dimethyl-6-((5-(2-methyl-5-(((1s,4s)-4-(methylsulfonyl)cyclohexyl)oxy)pyridin-4-yl)pyrazolo[1,5-a]pyridin-2-yl)amino)pyridazin-3(2H)-one] |
| 0.00746 | CC(C)(C#N)COc1cnc(OC(F)F)cc1-c1ccn2nc(Nc3cnc(C(C)(C)O)cn3)cc2c1 [Example 713, 3-[[6-(difluoromethoxy)-4-[2-[[5-(1-hydroxy-1-methyl-ethyl)pyrazin-2-yl]amino]pyrazolo[1,5-a]pyridin-5-yl]-3-pyridyl]oxy]-2,2-dimethyl-propanenitrile] |
| 0.001 | CC(C)(C#N)COc1cnc(OC(F)F)cc1-c1ccn2nc(Nc3cncc(N)n3)cc2c1 [Example 691, 3-[[4-[2-[(6-aminopyrazin-2-yl)amino]pyrazolo[1,5-a]pyridin-5-yl]-6-(difluoromethoxy)-3-pyridyl]oxy]-2,2-dimethyl-propanenitrile] |
| 0.00429 | Cc1cc(-c2ccn3nc(Nc4cc(C)c(=O)n(CCOC(F)F)n4)cc3c2)c(O[C@H]2CC[C@H](O)CC2)cn1 [Example 283, 2-[2-(difluoromethoxy)ethyl]-6-[[5-[5-(4-hydroxycyclohexoxy)-2-methyl-4-pyridyl]pyrazolo[1,5-a]pyridin-2-yl]amino]-4-methyl-pyridazin-3-one] |
| 0.00172 | CNc1cc(-c2ccn3nc(Nc4cc(C)nc(C)n4)cc3c2)c(OC[C@@H]2CNCCO2)cn1 [Example 501, N-(2,6-dimethylpyrimidin-4-yl)-5-[2-(methylamino)-5-[[(2S)-morpholin-2-yl]methoxy]-4-pyridyl]pyrazolo[1,5-a]pyridin-2-amine] |
| 0.00704 | Cc1cc(-c2ccn3nc(Nc4ccc(C5CC5)nn4)cc3c2)c(OC[C@@]23CN[C@@H](CO2)C3)cn1 [Example 255, N-(6-cyclopropylpyridazin-3-yl)-5-[2-methyl-5-[[(1R,4R)-5-oxa-2-azabicyclo[2.2.1]heptan-4-yl]methoxy]-4-pyridyl]pyrazolo[1,5-a]pyridin-2-amine] |
| 0.00758 | CCc1nc(C)cc(Nc2cc3cc(-c4cc(C)ncc4OCC(C)(C)O)ccn3n2)n1 [Example 202, 1-[[4-[2-[(2-ethyl-6-methyl-pyrimidin-4-yl)amino]pyrazolo[1,5-a]pyridin-5-yl]-6-methyl-3-pyridyl]oxy]-2-methyl-propan-2-ol] |
